From patent US10035760B2, “Inhibitors of human immunodeficiency virus replication” (priority 2013, dated 2018)
Read-outs that look alike come from different tables or passages of the source.

Test system: recombinant NL4-3 virus (Renilla luciferase) in MT-2 cells
Test: HIV cell culture assay (antiviral activity, luciferase readout in infected MT-2 cells)
Format: cell-based
Conditions: Renilla
Outline: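 Nef-deleted NL4-3 carrying Renilla luciferase, produced by 293T transfection, used to infect MT-2 cells for 4–5 days with serial compound dilutions. Live-cell luciferase signal read as infection marker; EC50 from exponential median-effect equation.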

[1] = NL43, read-out: Activity, antiviral activity class, recombinant NL4-3 Renilla luciferase virus in MT-2 cells
[2] = NL43, recombinant NL4-3 Renilla luciferase virus in MT-2 cells

For CCN(C(=O)[C@H](Cc1ccccc1)NC(=O)NS(=O)(=O)c1cccc(-c2cc3c(OC)cccc3[nH]2)c1)c1ccc(OC)cc1 [Example 154, (S)—N-ethyl-2-(3-((3-(4-methoxy-1H-indol-2-yl)phenyl)sulfonyl)ureido)-N-(4-methoxyphenyl)-3-phenylpropanamide], the EC50 [1] was 100 to 1000 nM and the EC50 [2] was 670 nM.
CCN(C(=O)[C@H](Cc1ccccc1)NC(=O)NS(=O)(=O)c1cccc(-c2ccsc2Cl)c1C)c1ccc(OC)cc1 [Example 156, (S)-2-(3-((3-(2-chlorothiophen-3-yl)-2-methylphenyl)sulfonyl)ureido)-N-ethyl-N-(4-methoxyphenyl)-3-phenylpropanamide] showed an EC50 [1] of 100 to 1000 nM.
CCN(C(=O)[C@H](Cc1ccccc1)NC(=O)NS(=O)(=O)c1cccc(-c2ccsc2)c1C)c1ccc(OC)cc1 [Example 157, (S)—N-ethyl-N-(4-methoxyphenyl)-2-(3-((2-methyl-3-(thiophen-3-yl)phenyl)sulfonyl)ureido)-3-phenylpropanamide] gave an EC50 [1] of 100 to 1000 nM.
CCN(C(=O)[C@H](Cc1ccccc1)NC(=O)NS(=O)(=O)c1cccc(-c2ccnn2C)c1C)c1ccc(OC)cc1 [Example 158, (S)—N-ethyl-N-(4-methoxyphenyl)-2-(3-((2-methyl-3-(1-methyl-1H-pyrazol-5-yl)phenyl)sulfonyl)ureido)-3-phenylpropanamide] showed an EC50 [1] of 100 to 1000 nM and an EC50 [2] of 230 nM.
Compound CCN(C(=O)[C@H](Cc1ccccc1)NC(=O)NS(=O)(=O)c1cccc(-c2cnoc2)c1C)c1ccc(OC)cc1 [Example 159, (S)—N-ethyl-2-(3-((3-(isoxazol-4-yl)-2-methylphenyl)sulfonyl)ureido)-N-(4-methoxyphenyl)-3-phenylpropanamide] has an EC50 [1] of 100 to 1000 nM.
With CCN(C(=O)[C@H](Cc1ccccc1)NC(=O)NS(=O)(=O)c1cccc(-c2csc(C(=O)O)c2)c1C)c1ccc(OC)cc1 [Example 160] the EC50 [1] was 1000 to 10000 nM and the EC50 [2] was 5640 nM.
With CCN(C(=O)[C@H](Cc1ccccc1)NC(=O)NS(=O)(=O)c1cccc(-c2csc3ccccc23)c1C)c1ccc(OC)cc1 [Example 161, (S)-2-(3-((3-(benzo[b]thiophen-3-yl)-2-methylphenyl)sulfonyl)ureido)-N-ethyl-N-(4-methoxyphenyl)-3-phenylpropanamide] the EC50 [1] was 1000 to 10000 nM.
In the case of CCN(C(=O)[C@H](Cc1ccccc1)NC(=O)NS(=O)(=O)c1cccc(-c2cc3c(OC)cccc3[nH]2)c1C)c1ccc(OC)cc1 [Example 162, (S)—N-ethyl-2-(3-((3-(4-methoxy-1H-indol-2-yl)-2-methylphenyl)sulfonyl)ureido)-N-(4-methoxyphenyl)-3-phenylpropanamide], the EC50 [1] is reported as 1000 to 10000 nM.
Compound Cc1cccc(N(C)C(=O)[C@H](Cc2ccccc2)NC(=O)NS(=O)(=O)c2ccccc2C)c1 [Example 163, (S)—N-methyl-3-phenyl-N-(m-tolyl)-2-(3-(o-tolylsulfonyl)ureido)propanamide] has an EC50 [1] of 100 to 1000 nM.
With Cc1ccccc1S(=O)(=O)NC(=O)N[C@@H](Cc1ccccc1)C(=O)N(C)c1ccc(Cl)cc1 [Example 164, (S)—N-(4-chlorophenyl)-N-methyl-3-phenyl-2-(3-(o-tolylsulfonyl)ureido)propanamide] the EC50 [1] was 100 to 1000 nM.
With COc1ccccc1N(C)C(=O)[C@H](Cc1ccccc1)NC(=O)NS(=O)(=O)c1ccccc1C [Example 165, (S)—N-(2-methoxyphenyl)-N-methyl-3-phenyl-2-(3-(o-tolylsulfonyl)ureido)propanamide] the EC50 [1] was 1000 to 10000 nM.
COc1cccc(N(C)C(=O)[C@H](Cc2ccccc2)NC(=O)NS(=O)(=O)c2ccccc2C)c1 [Example 166, (S)—N-(3-methoxyphenyl)-N-methyl-3-phenyl-2-(3-(o-tolylsulfonyl)ureido)propanamide] showed an EC50 [1] of 100 to 1000 nM and an EC50 [2] of 240 nM.
With COc1ccc(N(C)C(=O)[C@H](Cc2ccccc2)NC(=O)NS(=O)(=O)c2ccccc2C)cc1 [Example 167, (S)—N-(4-methoxyphenyl)-N-methyl-3-phenyl-2-(3-(o-tolylsulfonyl)ureido)propanamide] the EC50 [1] was less than 100 nM.
Cc1ccccc1S(=O)(=O)NC(=O)N[C@@H](Cc1ccccc1)C(=O)N(C)c1cccc(F)c1 [Example 168, (S)—N-(3-fluorophenyl)-N-methyl-3-phenyl-2-(3-(o-tolylsulfonyl)ureido)propanamide] showed an EC50 [1] of 100 to 1000 nM.
With Cc1ccccc1S(=O)(=O)NC(=O)N[C@@H](Cc1ccccc1)C(=O)N(C)c1ccc(F)cc1 [Example 169, (S)—N-(4-fluorophenyl)-N-methyl-3-phenyl-2-(3-(o-tolylsulfonyl)ureido)propanamide] the EC50 [1] was 100 to 1000 nM.
Cc1ccccc1S(=O)(=O)NC(=O)N[C@@H](Cc1ccccc1)C(=O)N1CCCc2ccccc21 [Example 170, (S)—N-((1-(3,4-dihydroquinolin-1(2H)-yl)-1-oxo-3-phenylpropan-2-yl)carbamoyl)-2-methylbenzenesulfonamide] showed an EC50 [1] of 1000 to 10000 nM.
COc1ccc2c(c1)CCCN2C(=O)[C@H](Cc1ccccc1)NC(=O)NS(=O)(=O)c1ccccc1C [Example 171, (S)—N-((1-(6-methoxy-3,4-dihydroquinolin-1(2H)-yl)-1-oxo-3-phenylpropan-2-yl)carbamoyl)-2-methylbenzenesulfonamide] was tested, and the EC50 [1] was 100 to 1000 nM.
For COc1ccc2c(c1)OCCN2C(=O)[C@H](Cc1ccccc1)NC(=O)NS(=O)(=O)c1ccccc1C [Example 172, (S)—N-((1-(7-methoxy-2H-benzo[b][1,4]oxazin-4(3H)-yl)-1-oxo-3-phenylpropan-2-yl)carbamoyl)-2-methylbenzenesulfonamide], the EC50 [1] was 100 to 1000 nM and the EC50 [2] was 270 nM.
For Cc1ccccc1S(=O)(=O)NC(=O)N[C@@H](Cc1ccccc1)C(=O)N1CCCc2cc(O)ccc21 [Example 173, (S)—N-((1-(6-hydroxy-3,4-dihydroquinolin-1 (2H)-yl)-1-oxo-3-phenylpropan-2-yl)carbamoyl)-2-methylbenzenesulfonamide], the EC50 [1] was 100 to 1000 nM.
Work on Cc1ccccc1S(=O)(=O)NC(=O)N[C@@H](Cc1ccccc1)C(=O)N1CCc2ccccc21 [Example 174, (S)—N-((1-(indolin-1-yl)-1-oxo-3-phenylpropan-2-yl)carbamoyl)-2-methylbenzenesulfonamide] yielded an EC50 [1] of 1000 to 10000 nM and an EC50 [2] of 3840 nM.
Compound CCN(C(=O)[C@H](Cc1ccccc1)NC(=O)NS(=O)(=O)c1ccccc1C)c1ccc(C)c(C)c1 [Example 175, (S)—N-(3,4-dimethylphenyl)-N-ethyl-3-phenyl-2-(3-(o-tolylsulfonyl)ureido)propanamide] has an EC50 [1] of less than 100 nM.
Compound Cc1ccccc1S(=O)(=O)NC(=O)N[C@@H](Cc1ccccc1)C(=O)N(C)c1nc2ccccc2s1 [Example 176, (S)—N-(benzo[d]thiazol-2-yl)-N-methyl-3-phenyl-2-(3-(o-tolylsulfonyl)ureido)propanamide] has an EC50 [1] of 10000 to 100000 nM.
With CCN(C(=O)[C@H](Cc1ccccc1)NC(=O)NS(=O)(=O)c1ccccc1C)c1ccc2ccccc2c1 [Example 177, (S)—N-ethyl-N-(naphthalen-2-yl)-3-phenyl-2-(3-(o-tolylsulfonyl)ureido)propanamide] the EC50 [1] was less than 100 nM.
For CCN(C(=O)[C@H](Cc1ccccc1)NC(=O)NS(=O)(=O)c1ccccc1C)c1ccc(OC(F)(F)F)cc1 [Example 178, (S)—N-ethyl-3-phenyl-2-(3-(o-tolylsulfonyl)ureido)-N-(4-(trifluoromethoxy)phenyl)propanamide], the EC50 [1] was less than 100 nM and the EC50 [2] was 80 nM.
Cc1ccccc1S(=O)(=O)NC(=O)N[C@@H](Cc1ccccc1)C(=O)N(C)C1CCCCC1 [Example 179, (S)—N-cyclohexyl-N-methyl-3-phenyl-2-(3-(o-tolylsulfonyl)ureido)propanamide] gave an EC50 [1] of 1000 to 10000 nM.
Cc1ccccc1S(=O)(=O)NC(=O)N[C@@H](Cc1ccccc1)C(=O)N(C)Cc1ccccn1 [Example 180, (S)—N-methyl-3-phenyl-N-(pyridin-2-ylmethyl)-2-(3-(o-tolylsulfonyl)ureido)propanamide] showed an EC50 [1] of 1000 to 10000 nM.
CCN(C(=O)[C@H](Cc1ccccc1)NC(=O)NS(=O)(=O)c1ccccc1C)c1ccc(Cl)cc1 [Example 181, (S)—N-(4-chlorophenyl)-N-ethyl-3-phenyl-2-(3-(o-tolylsulfonyl)ureido)propanamide] gave an EC50 [1] of 100 to 1000 nM.
In the case of CCN(C(=O)[C@H](Cc1ccccc1)NC(=O)NS(=O)(=O)c1ccccc1C)c1ccc(Cl)c(C(F)(F)F)c1 [Example 182, (S)—N-(4-chloro-3-(trifluoromethyl)phenyl)-N-ethyl-3-phenyl-2-(3-(o-tolylsulfonyl)ureido)propanamide], the EC50 [1] is reported as 100 to 1000 nM.
For CCCN(C(=O)[C@H](Cc1ccccc1)NC(=O)NS(=O)(=O)c1ccccc1C)c1ccc(Cl)c(Cl)c1 [Example 183, (S)—N-(3,4-dichlorophenyl)-3-phenyl-N-propyl-2-(3-(o-tolylsulfonyl)ureido)propanamide], the EC50 [1] was 100 to 1000 nM and the EC50 [2] was 310 nM.
CCN(C(=O)[C@H](Cc1ccccc1)NC(=O)NS(=O)(=O)c1ccccc1C)c1ccc(OC)cc1 [Example 184, (S)—N-ethyl-N-(4-methoxyphenyl)-3-phenyl-2-(3-(o-tolylsulfonyl)ureido)propanamide] was tested, and the EC50 [1] was less than 100 nM.
In the case of Cc1ccccc1S(=O)(=O)NC(=O)N[C@@H](Cc1ccccc1)C(=O)N1CCc2cc(S(=O)(=O)N(C)C)ccc21 [Example 185, (S)—N,N-dimethyl-1-(3-phenyl-2-(3-(o-tolylsulfonyl)ureido)propanoyl)indoline-5-sulfonamide], the EC50 [1] is reported as 1000 to 10000 nM.
Cc1ccccc1S(=O)(=O)NC(=O)N[C@@H](Cc1ccccc1)C(=O)N1CCc2sccc2C1 [Example 186, (S)—N-((1-(6,7-dihydrothieno[3,2-c]pyridin-5(4H)-yl)-1-oxo-3-phenylpropan-2-yl)carbamoyl)-2-methylbenzenesulfonamide] was tested, and the EC50 [1] was 1000 to 10000 nM and the EC50 [2] was 3590 nM.
With Cc1ccccc1S(=O)(=O)NC(=O)N[C@@H](Cc1ccccc1)C(=O)N1C[C@@H]2C[C@H]1CO2 [Example 187, N—(((S)-1-((1S,4S)-2-oxa-5-azabicyclo[2.2.1]heptan-5-yl)-1-oxo-3-phenylpropan-2-yl)carbamoyl)-2-methylbenzenesulfonamide] the EC50 [2] was greater than 33300 nM.
